{"source": "patent US11229665B2", "about": "“Compound of glycosaminoglycan and its fabrication method as well as application” (Holy Stone Healthcare Co., Ltd., priority 2013, dated 2022)", "key": {"HT29 cells": {"system": "HT29 cells", "test": "In vitro cytotoxicity (MTT cell viability)", "type": "cell-based, human", "settings": "24 hours"}, "HCT15 cells": {"system": "HCT15 cells", "test": "In vitro cytotoxicity (MTT cell viability)", "type": "cell-based, human", "settings": "24 hours"}, "[1]": {"test": "Body weight in xenograft nude mice model", "type": "in vivo, BALB/c athymic (nu+/nu+) mice", "settings": "HT29 xenograft mice; 1.5 mg/kg Nimesulide or equivalent, tail vein, within 24 days", "procedure": "3. Tumor sizes and body weight were measured every 3 or 5 days for the duration of the experiment.\n6. Mice were administered via tail vein injections at doses of Nimesulide (1.5 mg/kg), HA-Nimesulide (equivalent to 1.5 mg/kg of Nimesulide) or PBS respectively with an interval of 48 or 72 hours.\n7. The tumor size and change in body weight of each mouse were recorded."}, "[2]": {"test": "Adhesion of fluorescent HA (HA-f) in colon tissue (IVIS image system)", "parameters": "species or system SD-rat (Sprague-Dawley Rat)", "settings": "0.5% HA-f, 2 hours", "procedure": "1. 0.25 g high molecule weight sodium hyaluronate powder (HHA; Mw: 2 MDa; Freda) and 0.25 g low molecule weight sodium hyaluronate powder (LHA; Mw: 0.35 MDa; Freda) were added into 50 ml PBS buffer (Phosphate buffered saline) respectively to form 0.5% solution, and then stirred for 6 hours until the powder was totally dissolved. 0.25 g medium molecule weight sodium hyaluronate powder (MHA; Mw: 1 MDa; Freda) was added into 50 ml PBS buffer, and then stirred for 6 hours until the powder was totally dissolved and ready for use in the following steps.\n2. Fluorescent HA (HA-f) was prepared by (1) 0.39 g MES free acid (2-(N-morpholino) ethanesulfonic acid, Calbiochem) and was dissolved in 100 ml dd water. (2) Solution A: 65 mg fluroresceinamine powder, (isomer I, Fluka) was dissolved in 9 ml 95% EtOH solution and then stirred for 10 minutes under a condition that light was prohibited. […] (8) The product after reaction was poured into a dialysis tubing (MW: 12000˜14000) in 5 L dd water as a dialysis solution and then stirred for 5 days at 4° C. under a condition that light was prohibited with dialysis solution being changed every 12 hours until the dialysis solution had no fluorescence. […]\n7. All values are calculated as means of n observations. The histological index was analyzed by Student's t-test."}, "[3]": {"settings": "Lenalidomide series, 3.125-400 μM"}, "[4]": {"settings": "Nimesulide series, 3.125-200 μM"}}}
{"compound": "Nc1cccc2c1CN(C1CCC(=O)NC1=O)C2=O", "note": "(stereo not shown) [Lenalidomide]", "values": [{"measurement": "cytotoxicity effect (cell viability, MTT)", "setting": "HT29 cells; [3]", "result": "almost the same in both cell lines"}, {"measurement": "cytotoxicity effect (cell viability, MTT)", "setting": "HCT15 cells; [3]", "result": "almost the same in both cell lines"}]}
{"compound": "CS(=O)(=O)Nc1ccc([N+](=O)[O-])cc1Oc1ccccc1", "note": "[NiNO2, Nimesulide]", "values": [{"measurement": "cytotoxicity effect (cell viability, MTT)", "setting": "HT29 cells; [4]", "result": "generally better than modified production"}, {"measurement": "cytotoxicity effect (cell viability, MTT)", "setting": "HCT15 cells; [4]", "result": "generally better than modified production"}, {"measurement": "average body weight", "setting": "[1]", "result": "almost the same"}]}
{"compound": "sodium hyaluronate [1 MDa HA]", "values": [{"measurement": "fluorescent index of adhesion", "setting": "[2]; normal or injured colon tissues", "result": "higher than 2 MDa HA"}]}
{"compound": "sodium hyaluronate [350 KDa HA]", "values": [{"measurement": "fluorescent index of adhesion", "setting": "[2]; injured colon tissues, normal colon tissue defined as 1", "result": "obviously higher than HAs of the other two average molecular weights"}]}
